Data on two molecules can be found in patent US10583109B2, “Use of silver(I) complexes as anticancer agents” (University of Johannesburg, priority 2012, dated 2020).

Each structure is given as a SMILES string.

The test system of assay [1] is MCF-7 breast cancer cells. Kind of assay: Morphological features of MCF-7 cells by inverse light microscopy. The assay is classed as cell-based, human. As to conditions: 10 μM, 24 hours after treatment, compared to 100 μM Cisplatin apoptotic control. As to the method:
The morphological features of MCF-7 cells following differential treatments were evaluated by inverse light microscopy as depicted in FIG. 4. Untreated cells served as the control, while 1% DMSO served as the solvent control and 100 μM Cisplatin indicates apoptotic cells. Cells were exposed to 10 μM of complexes (1)-(5). Morphological changes of the cell indicative of apoptosis include cell shrinkage and blebbing.
In the light of the decreased viability, the morphology of the cells was studied 24 hours after treatment with 10 μM of complexes (1), (2), (3), (4) and (5) to determine if apoptotic or necrotic features were present. The morphology of the cells was compared to the apoptotic control treated with 100 μM Cisplatin (FIG. 4).

The next assay relates to A-549 lung cancer cells. Nature of the assay: AlamarBlue viability and proliferation assay of A-549 lung cancer cells. The note with it: 2.5 μM, 24 h. The assay is classed as cell-based. As to the method: A-549 lung cancer cells were maintained in DMEM supplemented with 10% fetal calf serum (FCS), 1 mM pyruvate, 2 mM L-glutamine (Highveld Biological, Kelvin, RSA), 1% antibiotics (penicillin, streptomycin, amphotericin (Highveld Biological, Kelvin, RSA) and gentamycin (Invitrogen Life Technologies, Eugene, Oreg.)).
Cells (1×10^4 cells/well) were plated in 96-well flat-bottomed plates and incubated for 24 h at 37° C. with 5% CO2. All compounds were preheated for 30 min prior treatment. After 24 h compounds (2.5 μM) were mixed with supplemented media and incubated for 24 h. For the untreated control supplemented media was used. Since all compounds were dissolved in DMSO, a 1% DMSO was used as a vehicle control.
The A-549 lung cancer cells were incubated at 37° C. for 3 h in the presence of 10% AlamarBlue® viability and proliferation assay (Invitrogen Life Technologies, Eugene, Oreg.). […] Fluorescence was measured at 530-560 nm (excitation) and 590 nm (emission).
FIG. 27 is a bar chart showing percentage cellular viability of fibroblast cells and A-549 lung cancer cells treated with various molar ratios (complexes (6)-(9)) using the AlamarBlue® cell viability assay whereby the molar ratio of the silver(I) nitrate salt: phosphine ligand of 1:1, 1:2, 1:3 and 1:4 was assessed. Fluorescence was measured with 530 nm excitation wavelength and 590 nm emission wavelength. […]

Regarding `C1#[N+][Ag]([P+](c2ccccc2)(c2ccccc2)c2ccccc2)([P+](c2ccccc2)(c2ccccc2)c2ccccc2)[S]C#[N+][Ag]([P+](c2ccccc2)(c2ccccc2)c2ccccc2)([P+](c2ccccc2)(c2ccccc2)c2ccccc2)[S]1` [complex (1), [AgSCN(PPh3)2]2], the “cell morphology (apoptotic or necrotic features)” value in assay [1] is listed as “morphology characteristic of necrosis”.

Consider `c1ccc([P+](c2ccccc2)(c2ccccc2)[Ag+]([P+](c2ccccc2)(c2ccccc2)c2ccccc2)([P+](c2ccccc2)(c2ccccc2)c2ccccc2)[P+](c2ccccc2)(c2ccccc2)c2ccccc2)cc1` [complex (9), AgNO3(PPh3)4], for which the “toxicity to A-549 lung cancer cells” value with A-549 lung cancer cells is given as “higher toxicity level”.
